These results are taken from publication PMC5450702 (Toxins, 2017).

The test system of one series is mice. Briefly: CFA-induced inflammation and thermal hyperalgesia. In kind it is in vivo, CD-1 mice. The method, then: All experiments were approved by the Animal Care and Use Committee of the Branch of the IBCh RAS (Pushchino, Russia) protocol number No. 492/16. Adult male CD-1 mice (weight 20–30 g; obtained from the Animal Breeding Facility Branch of Shemyakin-Ovchinnikov Institute of Bioorganic Chemistry, Russian Academy of Sciences, Pushchino, Russia Federation) were housed at room temperature (23 ± 2 °C) and subjected to a 12 h light–dark cycle with food and water available ad libitum. […] The significance of the data was determined by Analysis of variance (ANOVA) followed by Turkey’s post-hoc test. Data are presented as mean ± SEM.
Paw inflammation and thermal hyperalgesia was induced using Complete Freund’s Adjuvant (CFA) suspended in an oil/saline (1:1) emulsion. The mice were injected with 20 µL of CFA emulsion into the plantar surface of the left hind-paw. The control mice were injected with 20 µL of saline. […] Paw withdrawal latency was recorded using a hot plate (53 °C) 30 min after peptide or saline administration. […] Percent inflammation was calculated according to the formula ((Postdose paw diameter − Naive paw diameter)/(Predose paw diameter − Naive paw diameter)) × 100.

In the next series the test system is TRPA1. The settings on record: ref [53]; cited from earlier work. An excerpt: Most probably, this peptide can potentiate and defunctionalize the TRPA1 receptor on sensory neurons or desensitize neurons. […] In our study, defunctionalization of ...
Series [1] deals with myocardial voltage gated Na^+ channel. Set-up: method as in PMID 1686683. The settings on record: ref [41]; cited from earlier work.
The conditions of series [2]: ref [45], cited from earlier work. How it is done: The capability of defensins to interact with microbial membranes is determined by the shape of the molecules, the ratio of polar to hydrophobic residues on the peptide surface, and the total positive charge given through basic amino acids rather than by their individual primary structures. Usually, increasing the overall positive charge will increase the antimicrobial activity of AMPs due to the selective action of AMPs on negatively charged bacterial membranes. Indeed, the AMP cryptidin-4 (Crp4, charge +8) more effectively associates with negatively charged biological membranes than ne ...

Another series has as its system sodium channels. The settings on record: ref [11]; cited from earlier work.
The conditions of series [3]: ref [11]; cited from earlier work.

Take `CCC(=N\O)/C(C)=C/c1ccc(F)cc1` [A-967079]: the “effect of TRPA1 antagonist on Ueq 12-1 action, CFA-induced inflammation” value in the series on mice (A-967079 20 mg/kg p.o. 1 h before Ueq 12-1 0.2 mg/kg i.v.) is “completely blocked the effect of peptide Ueq 12-1”. Further, the “effect of TRPA1 antagonist on Ueq 12-1 action, thermal hyperalgesia” value in the series on mice (A-967079 20 mg/kg p.o., Ueq 12-1 0.2 mg/kg i.v., n = 7–8) was “completely blocked the effect of peptide Ueq 12-1”.

On to `C=C1C(=O)O[C@H]2[C@H]1CC/C(C)=C/CC[C@@]1(C)O[C@@H]21` [parthenolide], for which, in the series on TRPA1, the TRPA1 activity entry was “partial agonist of TRPA1”. Consider “Anthopleurin-A: 49-residue polypeptide from Anthopleura xanthogrammica”, for which the “effect on myocardial voltage gated Na^+ channel” value in series [1] was “delayed inactivation”.

With “cryptidin-4 (Crp4: mouse alpha-defensin 4 antimicrobial peptide (LRGLLCYCRKGHCKRGERVRGTCGIRFLYCCPRR; UniProt P28311 59-92, looked up)”, in series [2], the charge entry was “+8”. For the same compound, the association with membranes entry in series [2] (versus neutral membranes) is reported as “more effectively associates with negatively charged biological membranes than neutral membranes”.

In the case of neurotoxin 2 (ATX-II), the “effect on sodium channels gating” value in the series on sodium channels is “affect sodium channels gating”. Moreover, the antimicrobial properties entry in series [3] is “have antimicrobial properties”.
